Measurements published in ChEMBL document CHEMBL3272130, “Synthesis and hypotensive activity of some cyclopentano-1,2,3,4-tetrahydroisoquinolines” (J Med Chem, 1977).

Key:
Rattus norvegicus [1] = assay: Cardiovascular activity in deoxycorticosterone acetate treated hypertensive CD rat assessed as change in heart rate at 10 mg, ip after 2 hrs relative to control; assay type: ADME, organism-based; conditions: in vivo
Rattus norvegicus [2] = assay: Hypotensive activity in deoxycorticosterone acetate treated hypertensive CD rat assessed as change in blood pressure at 10 mg, ip after 4 hrs relative to control; assay type: functional
Rattus norvegicus [3] = assay: Cardiovascular activity in deoxycorticosterone acetate treated hypertensive CD rat assessed as change in heart rate at 5 mg, ip after 1 hr relative to control; assay type: ADME, organism-based; conditions: in vivo
Rattus norvegicus [4] = assay: Hypotensive activity in deoxycorticosterone acetate treated hypertensive CD rat assessed as change in blood pressure at 5 mg, ip after 4 hrs relative to control; assay type: functional
Rattus norvegicus [5] = assay: Hypotensive activity in deoxycorticosterone acetate treated hypertensive CD rat assessed as change in blood pressure at 10 mg, ip after 2 hrs relative to control; assay type: functional
Rattus norvegicus [6] = assay: Hypotensive activity in deoxycorticosterone acetate treated hypertensive CD rat assessed as change in blood pressure at 5 mg, ip after 2 hrs relative to control; assay type: functional
Rattus norvegicus [7] = assay: Cardiovascular activity in deoxycorticosterone acetate treated hypertensive CD rat assessed as change in heart rate at 10 mg, ip after 24 hrs relative to control; assay type: ADME, organism-based; conditions: in vivo
Rattus norvegicus [8] = assay: Cardiovascular activity in deoxycorticosterone acetate treated hypertensive CD rat assessed as change in heart rate at 5 mg, ip after 2 hrs relative to control; assay type: ADME, organism-based; conditions: in vivo
[9] = Toxicity in ip dosed Swiss-Webster mouse after 24 hrs; assay type: organism-based; conditions: in vivo
Rattus norvegicus [10] = assay: Hypotensive activity in deoxycorticosterone acetate treated hypertensive CD rat assessed as change in blood pressure at 5 mg, ip after 24 hrs relative to control; assay type: functional
Rattus norvegicus [11] = assay: Cardiovascular activity in deoxycorticosterone acetate treated hypertensive CD rat assessed as change in heart rate at 5 mg, ip after 24 hrs relative to control; assay type: ADME, organism-based; conditions: in vivo
Rattus norvegicus [12] = assay: Hypotensive activity in deoxycorticosterone acetate treated hypertensive CD rat assessed as change in blood pressure at 5 mg, ip after 1 hr relative to control; assay type: functional
Rattus norvegicus [13] = assay: Hypotensive activity in deoxycorticosterone acetate treated hypertensive CD rat assessed as change in blood pressure at 10 mg, ip after 24 hrs relative to control; assay type: functional
Rattus norvegicus [14] = assay: Cardiovascular activity in deoxycorticosterone acetate treated hypertensive CD rat assessed as change in heart rate at 10 mg, ip after 4 hrs relative to control; assay type: ADME, organism-based; conditions: in vivo
Rattus norvegicus [15] = assay: Cardiovascular activity in deoxycorticosterone acetate treated hypertensive CD rat assessed as change in heart rate at 5 mg, ip after 4 hrs relative to control; assay type: ADME, organism-based; conditions: in vivo
Rattus norvegicus [16] = assay: Hypotensive activity in deoxycorticosterone acetate treated hypertensive CD rat assessed as change in blood pressure at 4 mg, ip after 24 hrs relative to control; assay type: functional
Rattus norvegicus [17] = assay: Cardiovascular activity in deoxycorticosterone acetate treated hypertensive CD rat assessed as change in heart rate at 4 mg, ip after 1 hr relative to control; assay type: ADME, organism-based; conditions: in vivo
Rattus norvegicus [18] = assay: Hypotensive activity in deoxycorticosterone acetate treated hypertensive CD rat assessed as change in blood pressure at 4 mg, ip after 4 hrs relative to control; assay type: functional
Rattus norvegicus [19] = assay: Cardiovascular activity in deoxycorticosterone acetate treated hypertensive CD rat assessed as change in heart rate at 4 mg, ip after 24 hrs relative to control; assay type: ADME, organism-based; conditions: in vivo
Rattus norvegicus [20] = assay: Cardiovascular activity in deoxycorticosterone acetate treated hypertensive CD rat assessed as change in heart rate at 4 mg, ip after 4 hrs relative to control; assay type: ADME, organism-based; conditions: in vivo
Rattus norvegicus [21] = assay: Hypotensive activity in deoxycorticosterone acetate treated hypertensive CD rat assessed as change in blood pressure at 4 mg, ip after 1 hr relative to control; assay type: functional
Rattus norvegicus [22] = assay: Hypotensive activity in deoxycorticosterone acetate treated hypertensive CD rat assessed as change in blood pressure at 4 mg, ip after 2 hrs relative to control; assay type: functional
Rattus norvegicus [23] = assay: Cardiovascular activity in deoxycorticosterone acetate treated hypertensive CD rat assessed as change in heart rate at 4 mg, ip after 2 hrs relative to control; assay type: ADME, organism-based; conditions: in vivo
Rattus norvegicus [24] = assay: Cardiovascular activity in deoxycorticosterone acetate treated hypertensive CD rat assessed as change in heart rate at 25 mg, ip after 1 hr relative to control; assay type: ADME, organism-based; conditions: in vivo
Rattus norvegicus [25] = assay: Cardiovascular activity in deoxycorticosterone acetate treated hypertensive CD rat assessed as change in heart rate at 25 mg, ip after 4 hrs relative to control; assay type: ADME, organism-based; conditions: in vivo
Rattus norvegicus [26] = assay: Hypotensive activity in deoxycorticosterone acetate treated hypertensive CD rat assessed as change in blood pressure at 25 mg, ip after 1 hr relative to control; assay type: functional
Rattus norvegicus [27] = assay: Cardiovascular activity in deoxycorticosterone acetate treated hypertensive CD rat assessed as change in heart rate at 25 mg, ip after 24 hrs relative to control; assay type: ADME, organism-based; conditions: in vivo
Rattus norvegicus [28] = assay: Hypotensive activity in deoxycorticosterone acetate treated hypertensive CD rat assessed as change in blood pressure at 25 mg, ip after 24 hrs relative to control; assay type: functional
Rattus norvegicus [29] = assay: Hypotensive activity in deoxycorticosterone acetate treated hypertensive CD rat assessed as change in blood pressure at 25 mg, ip after 2 hrs relative to control; assay type: functional
Rattus norvegicus [30] = assay: Cardiovascular activity in deoxycorticosterone acetate treated hypertensive CD rat assessed as change in heart rate at 25 mg, ip after 2 hrs relative to control; assay type: ADME, organism-based; conditions: in vivo
Rattus norvegicus [31] = assay: Hypotensive activity in deoxycorticosterone acetate treated hypertensive CD rat assessed as change in blood pressure at 25 mg, ip after 4 hrs relative to control; assay type: functional

COc1c2c(c3c(c1OC)CCNC3)CCC2
Activity (Rattus norvegicus [1]): 4.7% | Activity (Rattus norvegicus [2]): 2.4% | Activity (Rattus norvegicus [3]): -5.2% | Activity (Rattus norvegicus [4]): -6.5% | Activity (Rattus norvegicus [5]): -13.2% | Activity (Rattus norvegicus [6]): -3% | Activity (Rattus norvegicus [7]): -2.6% | Activity (Rattus norvegicus [8]): -1.4% | LD50 at 24 h [9]: 25 mg/kg | Activity (Rattus norvegicus [10]): 1.8% | Activity (Rattus norvegicus [11]): -12.2% | Activity (Rattus norvegicus [12]): -9.5% | Activity (Rattus norvegicus [13]): 1% | Activity (Rattus norvegicus [14]): 9% | Activity (Rattus norvegicus [15]): -8.5%

Br.COc1c2c(c3c(c1OC)CCN(C)C3)CCC2
Activity (Rattus norvegicus [16]): 19.7% | Activity (Rattus norvegicus [17]): 13.2% | Activity (Rattus norvegicus [18]): -2.6% | Activity (Rattus norvegicus [19]): 1.8% | Activity (Rattus norvegicus [20]): -0.4% | LD50 at 24 h [9]: 10 mg/kg | Activity (Rattus norvegicus [21]): 13% | Activity (Rattus norvegicus [22]): 12.2% | Activity (Rattus norvegicus [23]): 11.2%

Br.CCC(C)CN1CCc2c(c3c(c(OC)c2OC)CCC3)C1 (stereo not drawn)
Activity (Rattus norvegicus [24]): 13.7% | Activity (Rattus norvegicus [25]): 5% | LD50 at 24 h [9]: 178 mg/kg | Activity (Rattus norvegicus [26]): -17.2% | Activity (Rattus norvegicus [27]): -0.3% | Activity (Rattus norvegicus [28]): 1.3% | Activity (Rattus norvegicus [29]): -12.6% | Activity (Rattus norvegicus [30]): 11.8% | Activity (Rattus norvegicus [31]): -6.7%
